In data set [1] the test system is acetyl- and butyryl-cholinesterase. The data set is described as follows: Resistance to cholinesterases. The class given is in vitro ADME.
For data set [2], the target named is central muscarinic receptors (M1) (Rattus norvegicus, UniProt P08482). The data set is described as follows: biochemical. The class given is binding.

The structures appear in SMILES notation.

central muscarinic receptors (M1), sequence (P08482 whole entry): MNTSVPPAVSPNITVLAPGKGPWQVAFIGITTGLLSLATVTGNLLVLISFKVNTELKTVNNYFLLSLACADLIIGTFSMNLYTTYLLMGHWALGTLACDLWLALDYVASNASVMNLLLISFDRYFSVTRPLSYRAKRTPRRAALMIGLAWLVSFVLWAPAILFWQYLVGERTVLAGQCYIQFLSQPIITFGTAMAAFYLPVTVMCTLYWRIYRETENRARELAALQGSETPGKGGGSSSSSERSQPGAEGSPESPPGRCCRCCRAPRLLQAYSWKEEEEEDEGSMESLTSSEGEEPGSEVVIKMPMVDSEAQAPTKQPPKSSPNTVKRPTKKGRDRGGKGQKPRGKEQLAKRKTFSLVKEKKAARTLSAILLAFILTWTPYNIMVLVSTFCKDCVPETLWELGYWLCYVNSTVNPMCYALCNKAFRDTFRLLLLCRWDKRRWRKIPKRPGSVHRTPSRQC

As for `CC1OC2(CS1)CN1CCC2CC1` (centres unmarked) [(Ia), 2-methylspiro(1,3-oxathiolan-5,3')quinuclidine], the “destruction by acetyl- and butyryl-cholinesterase” value in data set [1] is on record as “not destroyed”. The “pharmacological activity (muscarinic)” value in data set [2] is on record as “muscarinic agonist with a high specificity for the central nervous system”.

The record behind these values is US4855290A (priority 1985, dated 1989).
